Read-outs that look alike come from different tables or passages of the source.
Experiments:
Ca^2+ intake in the cell = test: Effect of the compounds on the calcium influx (Ca2+ intake) to the cell; type: cell-based; conditions: compound 20 μg/ml; − = decrease, + = increase
From the text: (§1) In the following Table I some of the preferred plant-derived phenolic compounds according to the present invention, the effect of the compounds on the calcium influx to the cell, the antioxidant effect as well as the chemical structure of the compounds are presented.

[1] = Antioxidant effect, IC50 against DPPH; type: biochemical; conditions: read-out: IC50 [moles L^−1] against DPPH′
From the text: as §1

C. pneumoniae = test: Direct anti-chlamydial effect of compounds and mixtures on C. pneumoniae (Example 5); type: cell-based; conditions: for inhibition at 50 µM: Chlamydia pneumoniae
Method: Direct Anti-Chlamydial Effect of Plant-Derived Phenolic Compounds, Certain Synthetic Compounds and Mixtures on C. pneumoniae
The concentration used was 50 μM.
The cultivated HL cells are infected with C. pneumoniae EB's. The EB's which have invaded the cell are changed into the metabolically active reticulate body (RB) which are dividing by binary fission in the endosome vacuole or inclusion.
After a certain time (about 72 hr) the C. pneumoniae RB's are condensing back into EB's, after which the inclusions are broken, the host cells are broken and the EB's are liberated. In this method the intention is to verify the inclusions before the breaking up of the host cells.
On the day preceding the infection the host cells are inoculated on a 24-well plate: the cells are harvested by trypsinisation, they are suspended in ca. 5 ml of the nutrition liquid and counted in a Burker's chamber. Each well are seeded using a concentration of 250000-400000 cells/well for cultivation. Before the addition of the cells to the well is if necessary round cover glass (diameter 13 mm) put for staining. Nutrition liquid is added so that the volume is 1 ml/well. On the following day the cells are infected with the desired bacterium.
Solution to be used in the infection and containing chlamydiae particles is mixed throughout. The old nutrition liquid is aspirated away. By the infection the inoculum which has been stored at −70° C. is diluted to an IFU concentration of ca. 10^3 so that the volume of the solution is at least 200 μl/well on a 24-well plate. The cells are infected by centrifuging at 1600 rpm (550×g)/1 hr. The nutrition medium is aspirated away and changed to a maintenance medium containing cyclohexamide and also containing the studied compound (DMSO concentration 0.2%), 1 ml/well. The cells are incubated in a 5% CO2 atmosphere at +35° C. The cells infected with C. pneumoniae are incubated for 3 days. After 2-3 days the maintenance medium is removed and the cells washed with 1×1 ml of PBS. To the wells 200 μl of SPG are added for further infection, harvested with a pipette tip and transferred into tubes. This is used for infecting new cells in the same way as above to test the inhibition of infectivity (chlamydiasidic effect).
The nutrition medium, which is above the cover glass left for staining, is aspirated away. The infected cells are fixed on the cover glass with methanol for 10 min. The cover glass is removed from the well and -transferred onto a suitable fluorescein-conjugated monoclonal antibody on Parafilm in a moist chamber with the cell-containing side down. The cover glass is incubated for 30 min at +37° C. and washed twice with PBS and once with water. Finally it is dried. The cover glass is put with the cell-containing side down on an object glass containing a fixative (e.g. Mounting medium). When viewed under the fluorescent microscope, cell culture specimens infacted with chlamydiae show a characteristic apple-green fluorescence of inclusions against a red counterstained background.

Compound	IC50 [1]	inhibition at 50 µM (C. pneumoniae; 50 μM, read-out: Inhibition %)	Inhibition % (C. pneumoniae; 50 μM)	other results
O=c1c(-c2ccc(O)cc2)coc2cc(O)cc(O)c12 [Genistein]	> 3700 µM	60%		inhibition at 20 µg/mL (Ca^2+ intake in the cell): 54.6%
O=C(O)c1cc2cc(Br)cc(Br)c2oc1=O [6,8-dibromocoumarin-3-carboxylic acid]		0%		
O=c1c(-c2ccc(O)cc2)coc2cc(O[C@@H]3O[C@H](CO)[C@@H](O)[C@H](O)[C@H]3O)cc(O)c12 [Genistin]		37%		inhibition at 20 µg/mL (Ca^2+ intake in the cell): 3.39%
Oc1cc(O)c2c(c1)O[C@H](c1cc(O)c(O)c(O)c1)[C@H](O)C2 [(−)-Epigallocatechin]			58%	
O=c1cc(-c2ccc(O)c(O)c2)oc2cc(O)cc(O)c12 [Luteolin]	12 µM	100%		inhibition at 20 µg/mL (Ca^2+ intake in the cell): 51.4%
CCCCCCCCCCCCOC(=O)c1cc(O)c(O)c(O)c1 [Dodecyl gallate]	15.4 µM	100%		inhibition at 20 µg/mL (Ca^2+ intake in the cell): 40.4%
O=C(O)c1ccccc1 [Benzoic acid]	> 8190 µM		44%	Effect on Ca^2+ intake [%] (Ca^2+ intake in the cell): −9.82%
COc1cc(/C=C/C(=O)O)ccc1O [Ferulic acid]	44.3 µM	14%		inhibition at 20 µg/mL (Ca^2+ intake in the cell): -9.23%
COc1cc(-c2oc3cc(O)cc(O)c3c(=O)c2O)ccc1O [Isorhamnetin]	18.1 µM		70%	Effect on Ca^2+ intake [%] (Ca^2+ intake in the cell): +52.4%
Oc1cc(O)c2c(c1)O[C@H](c1ccc(O)c(O)c1)[C@H](O)[C@H]2c1c(O)cc(O)c2c1O[C@H](c1ccc(O)c(O)c1)[C@@H](O)C2 [Procyanidin B1]			30%	
COc1ccc2oc(-c3ccccc3OC)cc(=O)c2c1 [6,2′-dimethoxyflavone]		73%		
COc1ccccc1-c1cc(=O)c2ccc3ccccc3c2o1 [2′-methoxy-α-naphtoflavone]			100%	
O=c1c(-c2ccc(O)cc2)coc2cc(O[C@@H]3O[C@H](CO)[C@@H](O)[C@H](O)[C@H]3O)ccc12 [Daidzin]			0%	Effect on Ca^2+ intake [%] (Ca^2+ intake in the cell): +7.6%
Oc1ccc(/C=C/c2cc(O)cc(O)c2)cc1 [Resveratrole]			54%	
Cc1cc(=O)oc2c3c4c(cc12)CCCN4CCC3 [Coumarin 102]			63%	
Methoxy psoralen			100%	
O=c1cc(-c2ccc(O)cc2)oc2cc(O)cc(O)c12 [Apigenin]	> 3700 µM	100%		inhibition at 20 µg/mL (Ca^2+ intake in the cell): 29.3%
O=C(O)/C=C/c1ccc(O)c(O)c1 [Caffeic acid]	21.4 µM	78%		inhibition at 20 µg/mL (Ca^2+ intake in the cell): -9.71%
C[C@@H]1O[C@@H](O[C@@H]2[C@@H](O)[C@H](O)[C@@H](CO)O[C@H]2c2c(O)cc(O)c3c(=O)cc(-c4ccc(O)cc4)oc23)[C@H](O)[C@H](O)[C@H]1O [Vitexin-2″-O-rhamnoside]			11%	Effect on Ca^2+ intake [%] (Ca^2+ intake in the cell): −14.6%
Cc1ccc2oc(=O)ccc2c1 [6-methylcoumarin]		71%		
O=c1cc(-c2ccc(O)c(O)c2)oc2cc(O[C@@H]3O[C@H](CO)[C@@H](O)[C@H](O)[C@H]3O)cc(O)c12 [Luteolin-7-glucoside]	10.7 µM		23%	Effect on Ca^2+ intake [%] (Ca^2+ intake in the cell): −16.3%
Cc1c(-c2ccccc2)c(=O)oc2ccccc12 [4-methyl-3-phenylcoumarin]		0%		
COc1cc2ccc(=O)oc2cc1O [Scopoletin]		96%		

Compound	IC50 [1]	inhibition at 50 µM (C. pneumoniae; 50 μM, read-out: Inhibition %)	Inhibition % (C. pneumoniae; 50 μM)	other results
O=c1cc(-c2ccccc2)oc2ccccc12 [Flavone]	> 4500 µM	90%		inhibition at 20 µg/mL (Ca^2+ intake in the cell): 63.5%
Oc1cc(O)c2c(c1)O[C@H](c1ccc(O)c(O)c1)[C@H](O)[C@H]2c1c(O)cc(O)c2c1O[C@H](c1ccc(O)c(O)c1)[C@H](O)C2 [Procyanidin B2]			0%	
C=C(C)[C@H]1Cc2c(ccc3c2O[C@@H]2COc4cc(OC)c(OC)cc4[C@@H]2C3=O)O1 [Rotenone]				inhibition at 50 µM (C. pneumoniae): 100%
O=c1oc2c3c4c(cc2c2c1CCC2)CCCN4CCC3 [Coumarin 106]			100%	
O=c1ccc2ccc(O)cc2o1 [Umbelliferone]		75%		
O=C(c1ccccc1)c1cc2c(ccc3ccccc32)oc1=O [3-benzoylbenzo(F)coumarin]			62%	
CC(=O)CC(c1ccccc1)c1c(O)c2ccccc2oc1=O (stereo not drawn) [3-(α-acetonylbenzyl)-4-hydroxycoumarin]		0%		
O=c1oc2cc(O)ccc2cc1-c1nc2ccccc2o1 [3-(2-benzoxazoyl)umbelliferone]			28%	
COC(=O)c1cc(O)c(O)c(O)c1 [Methyl gallate]	5.09 µM	100%		
O=c1cc(-c2ccc(O)cc2)oc2c([C@@H]3O[C@H](CO)[C@@H](O)[C@H](O)[C@H]3O)c(O)cc(O)c12 [Vitexin]			3%	Effect on Ca^2+ intake [%] (Ca^2+ intake in the cell): −2.12%
CCCOC(=O)c1cc(O)c(O)c(O)c1 [Propyl Gallate]	13.3 µM	100%		inhibition at 20 µg/mL (Ca^2+ intake in the cell): 37.9%
C[C@@H]1O[C@@H](OC[C@H]2O[C@@H](Oc3c(-c4ccc(O)c(O)c4)oc4cc(O)cc(O)c4c3=O)[C@H](O)[C@@H](O)[C@@H]2O)[C@H](O)[C@H](O)[C@H]1O [Rutin]	10.2 µM		46%	Effect on Ca^2+ intake [%] (Ca^2+ intake in the cell): −3.88%
CCN(CC)c1ccc2cc(-c3nc4ccccc4n3C)c(=O)oc2c1 [Coumarin 30]			50%	
O=C(O[C@@H]1Cc2c(O)cc(O)cc2O[C@@H]1c1ccc(O)c(O)c1)c1cc(O)c(O)c(O)c1 [(−)-Epicatechin gallate]			85%	
O=c1ccc2ccccc2o1 [Coumarin]		28%		
O=c1cc(-c2ccccc2)oc2c1ccc1ccccc12 [Alpha-naphtoflavone]			92%	
CCN(CC)c1ccc2cc(C(=O)c3cccs3)c(=O)oc2c1 [7-diethylamino-3-thenoylcoumarin]			100%	
C[C@@H]1O[C@@H](O[C@H]2[C@H](Oc3cc(O)c4c(c3)O[C@H](c3ccc(O)cc3)CC4=O)O[C@H](CO)[C@@H](O)[C@@H]2O)[C@H](O)[C@H](O)[C@H]1O [Naringin]			66%	Effect on Ca^2+ intake [%] (Ca^2+ intake in the cell): +6.5%
O=c1cc(-c2ccc(O)c(O[C@@H]3O[C@H](CO)[C@@H](O)[C@H](O)[C@H]3O)c2)oc2cc(O[C@@H]3O[C@H](CO)[C@@H](O)[C@H](O)[C@H]3O)cc(O)c12 [Luteolin-3′,7-glucoside]			45%	Effect on Ca^2+ intake [%] (Ca^2+ intake in the cell): −14.6%
Oc1cc(O)c2c(c1)O[C@H](c1ccc(O)c(O)c1)[C@@H](O)C2 [(+)-Catechin]			76%	
Oc1cc(O)c2c(c1)O[C@H](c1ccc(O)c(O)c1)[C@H](O)C2 [(−)-Epicatechin]			75%	
COc1c2occc2cc2ccc(=O)oc12 [Xanthotoxin]			94%	
COc1ccc(-c2cc(=O)c3c(O)cc(O)cc3o2)cc1 [Acacetin]	> 3520 µM			Effect on Ca^2+ intake [%] (Ca^2+ intake in the cell): −1.39%
